Test results: patent publication US6812229B1, “Carbamate derivative and agricultural/horticultural fungicide” (Kumiai Chemical Industry Co., Ltd., priority 1999, dated 2004)

Test system: Septoria nodorum
Test: Test for preventive effect on Septoria leaf blotch of wheat
Assay type: in vivo
Details: wheat seedlings (Norin-61-go), two-leaf stage, 50 ppm active ingredient, 10 ml per pot, evaluated 10 days after inoculation with Septoria nodorum
Excerpt: [table] 10 Wheat seeds (variety: Norin-61-go) were sown in each plastic pot having a diameter of 6 cm, and grown in a greenhouse. […] Then, the seedlings were inoculated with Septoria nodorum […] controlled in a greenhouse. 10 Days after the inoculation, the total diseased area of the first leaves in each pot was observed and evaluated on the basis of the standards shown in Table 21.

| Compound | Evaluation (total diseased area of the first leaves) |
| --- | --- |
| COC(=O)NCc1cc(C(C)=NOCc2ncccc2C)ccc1Cl [A-306] | A (No diseased area) |
| COC(=O)NCc1cc(C(C)=NOC(C)c2ccccc2Cl)ccc1Cl (stereo not shown) [A-309] | B (Diseased area of less than 5%) |
| COC(=O)NCc1cc(C(C)=NOC(C)c2cccc(Cl)c2)ccc1Cl (stereo not shown) [A-310] | A (No diseased area) |
| COC(=O)NCc1cc(C(C)=NOC(C)c2ccc(Cl)cc2)ccc1Cl (stereo not shown) [A-311] | A (No diseased area) |
| COC(=O)NCc1cc(C(C)=NOC(C)c2cccc(OC)c2)ccc1Cl (stereo not shown) [A-312] | A (No diseased area) |
| COC(=O)NCc1cc(C(C)=NOC(C)c2cccc(C(F)(F)F)c2)ccc1Cl (stereo not shown) [A-313] | A (No diseased area) |
| COC(=O)NCc1cc(C(C)=NOCc2ccccc2C(F)(F)F)ccc1C [A-314] | A (No diseased area) |
| COC(=O)NCc1cc(C(C)=NOCc2cccc(OC)c2)ccc1C [A-315] | A (No diseased area) |
| COC(=O)N(Cc1cccc(OC)c1)Cc1cc(C(C)=NOCc2cccc(OC)c2)ccc1C [A-322] | A (No diseased area) |
| COC(=O)NCc1cc(C(C)=NOCc2ccccc2)ccc1F [A-323] | A (No diseased area) |
| COC(=O)NCc1cc(C(C)=NOCc2ccccc2F)ccc1F [A-324] | A (No diseased area) |
| COC(=O)NCc1cc(C(C)=NOCc2ccccc2Cl)ccc1F [A-325] | A (No diseased area) |
| COC(=O)NCc1cc(C(C)=NOCc2ccccc2Br)ccc1F [A-326] | A (No diseased area) |
| COC(=O)NCc1cc(C(C)=NOCc2ccccc2C)ccc1F [A-327] | A (No diseased area) |
| COC(=O)NCc1cc(C(C)=NOCc2ccccc2C(F)(F)F)ccc1F [A-328] | A (No diseased area) |
| COC(=O)NCc1cc(C(C)=NOCc2cccc(OC)c2)ccc1F [A-329] | A (No diseased area) |
| COC(=O)NCc1cc(C(C)=NOCc2ccccn2)ccc1F [A-330] | B (Diseased area of less than 5%) |
| COC(=O)NCc1cc(C(C)=NOCc2ccccn2)ccc1C [A-333] | A (No diseased area) |
| COC(=O)NCc1cc(C(C)=NOCc2ccc(C)cn2)ccc1Cl [A-334] | A (No diseased area) |
| COC(=O)NCc1cccc(C(C)=NOCc2ccccc2Cl)c1 [A-338] | A (No diseased area) |
| COC(=O)NCc1cccc(C(C)=NOCc2cccc(Cl)c2)c1 [A-339] | A (No diseased area) |
| COC(=O)NCc1cccc(C(C)=NOCc2ccc(Cl)cc2)c1 [A-340] | B (Diseased area of less than 5%) |
| COC(=O)NCc1cc(C(=NOCc2ccccc2Cl)C2CC2)ccc1Cl [A-341] | A (No diseased area) |
| COC(=O)NCc1cc(C(C)=NOCc2ccccc2F)ccc1C [A-342] | A (No diseased area) |
| COC(=O)NCc1cccc(C(C)=NOCc2ccccc2C)c1 [A-343] | A (No diseased area) |

| Compound | Evaluation (total diseased area of the first leaves) |
| --- | --- |
| COC(=O)NCc1cccc(C(C)=NOCc2cccc(C)c2)c1 [A-344] | A (No diseased area) |
| COC(=O)NCc1cccc(C(C)=NOCc2ccc(C)cc2)c1 [A-345] | B (Diseased area of less than 5%) |
| COC(=O)NCc1cccc(C(C)=NOCc2ccccc2C(F)(F)F)c1 [A-348] | B (Diseased area of less than 5%) |
| COC(=O)NCc1cccc(C(C)=NOCc2cccc(C(F)(F)F)c2)c1 [A-349] | A (No diseased area) |
| COC(=O)NCc1cc(C(C)=NOCc2ccccn2)cc(C)c1Cl [A-355] | B (Diseased area of less than 5%) |
| COC(=O)NCc1cc(C(C)=NOCc2ccccc2C#N)cc(C)c1Cl [A-356] | A (No diseased area) |
| COC(=O)NCc1cc(C(C)=NOCc2ccccc2Cl)cc(C)c1C [A-358] | A (No diseased area) |
| COC(=O)NCc1cc(C(=NOCc2ccccc2C)C2CC2)ccc1Cl [A-359] | B (Diseased area of less than 5%) |
| COC(=O)NCc1cc(C(C)=NOCc2ccccc2C#N)ccc1C [A-360] | A (No diseased area) |
| COC(=O)N(Cc1cc(C(C)=NOCc2ccccc2C#N)ccc1C)Cc1ccccc1C#N [A-361] | B (Diseased area of less than 5%) |
| COC(=O)NCc1cc(C(C)=NOCc2cccc(C)c2)ccc1C [A-362] | A (No diseased area) |
| COC(=O)NCc1cc(C(C)=NOCc2ccc(C)cc2)ccc1C [A-363] | A (No diseased area) |
| COC(=O)NCc1cc(C(C)=NOCc2cccc(Cl)c2)ccc1C [A-364] | A (No diseased area) |
| COC(=O)NCc1cc(C(C)=NOCc2ccc(Cl)cc2)ccc1C [A-365] | B (Diseased area of less than 5%) |
| CON=C(C)CON=C(C)c1ccc(C)c(CNC(=O)OC)c1 [A-368] | A (No diseased area) |
| COC(=O)NCc1cc(C(C)=NOCCc2ccccc2)ccc1C [A-369] | A (No diseased area) |
| COC(=O)NCc1cc(C(C)=NOCc2cc(C)ccn2)ccc1Cl [A-370] | A (No diseased area) |
| COC(=O)NCc1cc(C(C)=NOCc2cccc(Cl)c2)ccc1F [A-371] | A (No diseased area) |
| COC(=O)NCc1cc(C(C)=NOCc2ccc(Cl)cc2)ccc1F [A-372] | A (No diseased area) |
| COC(=O)NCc1cc(C(C)=NOCc2cccc(C)c2)ccc1F [A-373] | A (No diseased area) |
| COC(=O)NCc1cc(C(C)=NOCc2ccc(C)cc2)ccc1F [A-374] | A (No diseased area) |
| COC(=O)NCc1cc(C(C)=NOCc2cccc(C(F)(F)F)c2)ccc1F [A-375] | B (Diseased area of less than 5%) |
| COC(=O)NCc1cc(C(C)=NOCc2ccc(C(F)(F)F)cc2)ccc1F [A-376] | B (Diseased area of less than 5%) |
| COC(=O)NCc1cc(C(C)=NOCc2ccccc2C#N)ccc1F [A-377] | A (No diseased area) |
